Data on one substance can be found in PMC5896380, “Selective imaging of cathepsin L in breast cancer by fluorescent activity-based probes” (Chemical Science, 2018).

The target in one assay is T1, cathepsin K (Homo sapiens, UniProt P43235).
T1 construct: made in house
T1 sequence (P43235 115-329): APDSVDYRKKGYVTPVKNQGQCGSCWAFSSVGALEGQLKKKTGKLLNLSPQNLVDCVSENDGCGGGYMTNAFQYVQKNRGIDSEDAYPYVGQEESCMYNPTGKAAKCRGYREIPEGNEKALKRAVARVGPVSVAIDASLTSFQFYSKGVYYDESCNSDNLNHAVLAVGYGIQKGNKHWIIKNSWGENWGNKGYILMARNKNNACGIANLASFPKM
Nature of the assay: kobs/I of activity-based probes, cathepsin K. It counts as biochemical. The following applies: Fig. 6A; pseudo-first order, probe at least 5-fold excess over cathepsin, 100 μM ACC substrate; pH 5.5, 37 °C; triplicate, SD below 20%. The protocol: All kinetic experiments were performed using fMax (Molecular Devices) and CLARIOStar (BMG LABTECH) spectrofluorimeters operating in kinetic mode using 96-well plates. ACC-labeled substrates were screened using 355 nm and 460 nm wavelengths (excitation and emission, respectively). […] The buffer was prepared at room temperature and the enzyme kinetic studies were performed at 37 °C.
For the kinetic studies, five recombinant human cathepsins (B, L, V, K and S) were expressed and purified and active site titrated using an E64 inhibitor. The kobs/I parameter was measured under pseudo-first order kinetic conditions, as described.[40] The cathepsin of interest was mixed with various concentrations of probe (at least 5-fold excess over cathepsin) and 100 μM ACC-fluorescence substrate. The experiments were repeated at least three times, and the results are presented as an average. The SDs were below 20%.

In assay [1] the test system is cathepsin B in MDA-MB-231 cells. Nature of the assay: Weighted colocalization of probe with cathepsin B antibody, confocal microscopy. It counts as cell-based, human. The following applies: CatB ab (8h), 1 μM probe. The protocol:
Glass coverslips 15 mm in diameter were placed in 12-well plates and coated with poly-D-lysine (500 μL, 1 mg mL^–1 in water, Specialty Media) for 30 minutes. The poly-D-lysine was aspirated and the coverslips were washed twice with sterile water and air-dried. Next, low passage MDA-MB-231 cells in DMEM (100 000 cells per mL) were added to wells (1 mL per well) and allowed to attach for 2 hours. Cells were then treated with Cy5-labeled probes (1 μM) for 8 or 24 hours. The control cells were preincubated with E64d for 2 hours. After various incubation times, the medium was removed and the cells were gently washed twice with DPBS (1 mL each). The cells were then fixed with ice-cold methanol (500 μL per well) for 15 minutes at –20 °C. […] Cathepsins L and B were detected by primary goat anti-hCathepsin L (R&D, AF952, 0.2 mg mL^–1, 1 : 200) and goat anti-hCathepsin B (R&D, AF953, 0.2 mg mL^–1, 1 : 80), respectively, in 3% BSA in DPBS (with 0.5% Triton-X, v/v) for 2 hours at room temperature. […] Next, the cells were washed twice with DPBS, and coverslips were mounted using Vectashield mounting medium fluorescence containing DAPI (Vector Lab. H-1000). […] All images were acquired in .tiff format in MetaMorph software or in .lsm format in ZEN software and analyzed using ImageJ and ZEN software. […]

Assay [2] concerns cathepsins L and B in HEK293T cells. Nature of the assay: Cathepsin labeling by Cy5 probes in HEK293T cells, immunoblotting. It counts as cell-based, human. The following applies: 1 μM probe, 0–18 hours. On the procedure: Figure S3 Cathepsins labeling by two Cy5-tagged probes in HEK293T cells. Panel A. Cells (100,000/well/mL) were incubated with MP-cL3 (1µM) probe for 0-18 hours. Next, cells were harvested and subjected for Western blotting. MP-cL3 probe is very selective toward cathepsin L even after 18 hours of incubation (only residual cathepsin B activity is detected).
MDA-MB-231, thus mostly heavy chain of cathepsin L is labeled. Panel B and Panel C. Cells (100,000/well/mL) were incubated with pan-specific MP-pc1 (1µ M) probe for 0-18 hours. Next, cells were harvested and subjected […]
(1 picture or pasted object on this page, not shown here)
For orientation: A western blot detects proteins with antibodies after separation by electrophoresis.

“Cy5-6-ahx-His-DThr-Phe(F5)-Cys(Bzl)-AOMK [MP-cL3]”: the “kobs/I Cath-K” value at cathepsin K is under 200 M⁻¹ s⁻¹. Further, the weighted colocalization coefficient in assay [1] (single cells analysis, 68 single cells) was determined as 0.635; in assay [1] (whole pictures analysis, 7 images), 0.646. The “cathepsins labeled in HEK293T cells” value in assay [2] is recorded as “bound only cathepsin L”.
